Data: patent US20260240877A1, “INOSITOL PHOSPHATE COMPOUNDS FOR USE IN INCREASING TISSULAR PERFUSION” (SANIFIT THERAPEUTICS, S.A., priority 2019, published 2026)

Experiments:
[1] = test system: Sprague Dawley (SD) rats with vitamin D3-induced limb ischemia; experiment: Limb blood perfusion by laser doppler perfusion imaging, treatment after inception of limb ischemia; assay type: in vivo, rat; conditions: Example 3; 40 mg/kg daily D5 to D13
Method: Position limb blood perfusion and ischemia status (i.e., blood perfusion including, perfusion unit, perfusion difference and perfusion ratio) is evaluated by laser doppler perfusion imaging using a PeriCam PSI NR imager (Perimed AB, Järfä11a, SE). Subjects are anesthetized using 3% isoflurane delivered in 100% oxygen at a flow rate at 1 L/min before measuring. The perfusion difference and perfusion ratio are calculated by comparing the baseline and any indicated interim or final readings for each group. […] Limb ischemia was induced in the subjects of groups 2-5 by subcutaneous administration of 120,000 IU/kg vitamin D3 (cholecalciferol, Duphafral D3 1000; Zoetis Inc., Parsippany, NJ, US) in physiological saline solution (2 mL/kg) every day during D1 to D3. The group 1 subjects were administered physiological saline solution (2 mL/kg) subcutaneously every day from D1 to D3 with no vitamin D3. Subjects in groups 3a placebo were administered 2 mL/kg of physiological saline solution daily from D5 to D13 via subcutaneous route. Subjects in group 3b placebo were administered orally 5 mL/kg of a 5% CMC sodium salt in water solution daily from D5 to D13. […] The perfusion difference and perfusion ratio were calculated by comparing the baseline and either D5 and D13 readings for each group.

[2] = test system: Sprague Dawley (SD) rats with vitamin D3-induced limb ischemia; experiment: Walking ability by treadmill running test, treatment after inception of limb ischemia; assay type: in vivo, rat; conditions: Example 3; 40 mg/kg/day, treatment started 5 days after ischemia induction, D11
Method: (§1) Quantification of walking ability (maximal waling time (MWT) and maximal walking distance (MWD)) are measured by a forced incremental treadmill running test. A two-lane rodent treadmill (LE8709TS; PanLab/Harvard Apparatus, Holliston, MA, US) is employed. The treadmill is maintained at a 15% inclination running at a speed of 15 m/min (25 cm/sec) during the first 5 min, then at 33 cm/see during the following 5 min, and finally, at a speed of 40 cm/see for a maximum of 30 additional minutes.
Maximal walking time (MWT) and maximal walking distance (MWD) were assessed in all groups at DO and in groups 1, 3a, 3b, 4, and 5 at D6 and D11 by the treadmill running test (8 to 12 animals per group and time point). Subjects were acclimatized to the treadmill for two days before conducting the test. On the first day, subjects were exercised for 5 to 10 minutes with the treadmill speed ranging progressively from 15 m/min to 24 m/min. […]
Limb function (MWT and MWD) was assessed in groups 1, 3a, 3b, and 4 using the treadmill running test 15 min after the corresponding daily administration. Limb function in groups 5 was assessed from 3 to 4 hours after treatment.
(§2) The subjects were kept running for 40 minutes or until exhausted (i.e., they remain on the shock grid for five continuous seconds). MWD and MWT was then calculated for each animal.

[3] = test system: adenine-induced uremic Sprague Dawley (SD) rats; experiment: Heart and aorta calcification (calcium content by ICP-OES), adenine-induced uremic rat model; assay type: in vivo; conditions: Example 6; SNF472 s.c. dosing or Alzet pump; cilostazol 45 mg/kg oral; D21
Method: Uremia and limb ischemia were induced in groups 2-6 by a daily dose of adenine (500 mg/kg, suspended in 1% carboxymethyl cellulose, administered orally) for the first 10 days, and then with a dose of α-calcidol (100 ng/kg in olive oil, administered orally) three times per week from D11 to D19, to accelerate and homogenize the development of cardiovascular calcification and ischemia. Subjects were anesthetized and their blood was obtained in D21. The subjects were sacrificed after exsanguination. Then, their necropsies were performed, and their heart and aorta arteries were collected. The tissues were lyophilized for 24 h and weighed. The lyophilized tissues were then digested using a 1:1 HNO3: HClO4 mixture in a dry bath incubator for 2-4 h at 180° C. The digested tissues were subsequently diluted using ultra-pure Milli-Q water (MilliporeSigma (Merck KGaA), Burlington, MA, US) to a final volume of 10 mL. The calcium content in the tissue samples was quantified via ICP-OES.

[4] = test system: Sprague Dawley (SD) rats with vitamin D3-induced limb ischemia; experiment: Limb blood perfusion by laser doppler perfusion imaging, prevention of vitamin D3-induced limb ischemia; assay type: in vivo, rat
Method: Position limb blood perfusion and ischemia status (i.e., blood perfusion including, perfusion unit, perfusion difference and perfusion ratio) is evaluated by laser doppler perfusion imaging using a PeriCam PSI NR imager (Perimed AB, Järfä11a, SE). Subjects are anesthetized using 3% isoflurane delivered in 100% oxygen at a flow rate at 1 L/min before measuring. The perfusion difference and perfusion ratio are calculated by comparing the baseline and any indicated interim or final readings for each group. […]
Limb ischemia status was evaluated at days DO (baseline), D6 and D12 in all rats by laser doppler perfusion imaging. The perfusion difference and perfusion ratio were calculated by comparing the DO baseline and either the D6 and D12 readings for each group. […]
Limb ischemia status was evaluated during treatment and after treatment was interrupted (i.e., DO, D6, D12, D18) in all rats by laser doppler perfusion imaging. The perfusion difference and perfusion ratio were calculated by comparing the baseline and either of the D6, D12, and D18 readings for each group. […]
Limb ischemia status was evaluated during the treatment period (i.e., DO, D6 and D12) by laser doppler perfusion imaging in all rats. The perfusion difference and perfusion ratio were calculated by comparing the baseline and either of the D6 and D12 readings for each group.

[5] = test system: Sprague Dawley (SD) rats with vitamin D3-induced limb ischemia; experiment: Walking ability (MWD, MWT) by treadmill running test, prevention of vitamin D3-induced limb ischemia; assay type: in vivo, rat
Method: as §1
Subjects are exercised in the treadmill for acclimatization according to a set protocol prior to testing.
Subjects are kept running for up to 40 min or until exhausted (i.e., they remain on the shock grid for five continuous seconds) during the test. MWD and MWT are then calculated for each animal.
Maximal waling time (MWT) and maximal walking distance (MWD) were assessed in groups 1~4 by the treadmill running test (8 to10 animals per group and time point) in DO, D5, D10, and D17.
Subjects were acclimatized to the treadmill for two days before conducting the test. On the first day, subjects were exercised for 5 to 10 minutes with the treadmill speed ranging progressively from 15 m/min to 24 m/min. On the second day, the subjects were exercised initially at a speed of 15 m/min for the 5 minutes. Then, they were exercised at 19.8 m/min (33 cm/sec) for 5 additional minutes. Finally, the subjects were exercised at 24 m/min (40 cm/sec) for a maximum 30 additional minutes. Preoperative walking time and distance recordings were obtained.
Limb function (MWT and MWD) was assessed in groups 1, 2, and 3 using the treadmill running test 15 min after the corresponding daily administration. Limb function in groups 4 was assessed from 3 to 4 hours after treatment.
as §2
Maximal walking time (MWT) and maximal walking distance (MWD) were assessed in groups 1-8 by the treadmill running test (8 to12 animals per group and time point) in DO, D5 and D10.
Limb function (MWT and MWD) was assessed in groups 1, 2, 3, 4, 5, 6 and 7 using the treadmill running test 15 min after the corresponding daily administration. Limb function in group 8 was assessed from 3 to 4 hours after treatment.

[6] = test system: Sprague Dawley (SD) rats treated with vitamin D3; experiment: Tissue calcification (calcium content by ICP-OES), VitD rat model, prevention; assay type: in vivo
Description: Subjects are anesthetized by isoflurane inhalation. Blood is obtained by exsanguination through cardiac puncture. The subjects are then sacrificed and their tissues (e.g., right and left femoral arteries, aorta) are collected. The blood and tissues are processed and analyzed for determining their calcium contents. Calcium content in tissue sample is quantified via inductively coupled plasma optical emission spectrometry (ICP-OES) using an Optima 7300 DV ICP-OES System spectrometer (PerkinElmer, Inc., Waltham, MA, US) according to the manufacturer's instructions. […] The subjects from groups 1, 2, 3 and 5 were sacrificed after exsanguination. Then, their necropsies were performed, and their aortas were collected. The tissues were lyophilized for 24 h and weighed. The lyophilized tissues were then digested using a 1:1 HNO3: HClO4 mixture in a dry bath incubator for 2-4 h at 180° C. The digested tissues were subsequently diluted using ultra-pure Milli-Q water (MilliporeSigma (Merck KGaA), Burlington, MA, US) to a final volume of 10 mL. The calcium content in the aorta sample was quantified via ICP-OES. Subjects were anesthetized and their blood was obtained in D24. The subjects were sacrificed after exsanguination. Then, their necropsies were performed, and their aortas were collected. The tissues were lyophilized for 24 h and weighed. The lyophilized tissues were then digested using a 1:1 HNO3: HClO4 mixture in a dry bath incubator for 2-4 h at 180° C. The digested tissues were subsequently diluted using ultra-pure Milli-Q water (MilliporeSigma (Merck KGaA), Burlington, MA, US) to a final volume of 10 mL. The calcium content in the tissue samples was quantified via ICP-OES. Subjects were anesthetized and their blood was obtained in D12. The subjects were sacrificed after exsanguination. Then, their necropsies were performed, and their heart and aorta arteries were collected. The tissues were lyophilized for 24 h and weighed. […] The calcium content in the tissue samples was quantified via ICP-OES.

[7] = test system: adenine-induced uremic Sprague Dawley (SD) rats; experiment: Limb blood perfusion by laser doppler perfusion imaging, adenine-induced uremic rat model; assay type: in vivo; conditions: Example 6; SNF472 30, 45 mg/kg s.c. or 400 mg/4 weeks Alzet pump; cilostazol 45 mg/kg oral; D1 to D21
Method: Position limb blood perfusion and ischemia status (i.e., blood perfusion including, perfusion unit, perfusion difference and perfusion ratio) is evaluated by laser doppler perfusion imaging using a PeriCam PSI NR imager (Perimed AB, Järfä11a, SE). Subjects are anesthetized using 3% isoflurane delivered in 100% oxygen at a flow rate at 1 L/min before measuring. The perfusion difference and perfusion ratio are calculated by comparing the baseline and any indicated interim or final readings for each group.
Uremia and limb ischemia were induced in groups 2-6 by a daily dose of adenine (500 mg/kg, suspended in 1% carboxymethyl cellulose, administered orally) for the first 10 days, and then with a dose of α-calcidol (100 ng/kg in olive oil, administered orally) three times per week from D11 to D19, to accelerate and homogenize the development of cardiovascular calcification and ischemia.
Animals in group 6 were administered orally 45 mg/kg cilostazol (C20H27N5O2, free base 369.46 g/mol; lot no. LRAB9590, Sigma-Aldrich Corp., St. Louis, MO, US) in a 5% CMC sodium salt in water solution (5 mL/kg) daily from D1 to D21.
Limb ischemia status was evaluated during treatment (i.e., DO, D10 and D17 and D21) in all rats by laser doppler perfusion imaging. The perfusion difference and perfusion ratio were calculated by comparing the baseline and of the D10, D17 and D21 readings for each group.

[8] = in vivo; cited from earlier work
[9] = test system: people with symptomatic PAD; conditions: recent studies in PAD patients; cited from earlier work

Row | Compound | limbs blood perfusion in D13 compared to D5 before treatment [1] | improvement of walking ability (MWD) compared to vehicle [2] | heart and aorta arteries calcification in uremic rats [3] | rat limb ischemia (blood perfusion) ([4]; Example 2, 20 mg/kg daily D1 to D12 (SNF472 s.c., cilostazol oral)) | rat limb ischemia (blood perfusion) ([4]; Example 5, SNF472 1, 7.5, 15, 30, 45 mg/kg s.c., cilostazol 45 mg/kg oral, daily D1 to D12) | improvement of Maximal Walking Distance (MWD) compared to vehicle ([5]; Example 2, 20 mg/kg daily, D10) | improvement of Maximal Walking Time (MWT) compared to vehicle ([5]; Example 2, 20 mg/kg daily, D10) | effect on walking ability after interrupting treatment ([5]; Example 2, D17, 5 days after interrupting treatment) | walking ability compared to vehicle ([5]; Example 5, SNF472 1-45 mg/kg s.c., cilostazol 45 mg/kg oral, daily D1 to D12) | inhibition of aorta calcification compared to placebo ([6]; Example 1, 20 mg/kg daily, D12) | inhibition of aorta calcification compared to placebo ([6]; Example 2, 20 mg/kg daily D1 to D12, D24 (12 days after interruption of treatment)) | heart and aorta arteries calcification ([6]; Example 5, SNF472 1-45 mg/kg s.c., cilostazol 45 mg/kg oral, D12) | rat limb ischemia in uremic rats (blood perfusion) [7] | side effects [8] | intermittent claudication symptoms or maximal walking distance versus placebo [9]
1 | O=C1CCc2cc(OCCCCc3nnnn3C3CCCCC3)ccc2N1 [Cilostazol, 6-[4-(1-cyclohexyl-1H-tetrazol-5yl)butoxy]-3,4-dihydro-2 (1H)-quinolinone] | No improvement or ischemia rescue | not effective | not active against calcification | not effective | not effective | +54% | +46% | lost its beneficial effects | improved walking ability | not active against calcification | not active against calcification | not active against calcification | not effective | headache, diarrhea, palpitations, and lightheadedness | –
2 | CC(=O)CCCCn1c(=O)c2c(ncn2C)n(C)c1=O [pentoxifylline] | – | – | – | – | – | – | – | – | – | – | – | – | – | – | not significantly improved
